In US20180214428A1, “3-(1H-INDOL-2-YL)-1H-PYRAZOLO[3,4-B]PYRIDINES AND THERAPEUTIC USES THEREOF” (Samumed, LLC, priority 2015, published 2018):

Columns and labels:
[1] = system: primary human fibroblasts derived from IPF patients (LL29 cells); experiment: Inhibition of the fibrotic process: αSMA staining in TGF-β1 treated LL29 fibroblasts; assay type: cell-based; conditions: Homo sapiens, Fibroblast; for EC50: 96 h, TGF-β1 20 ng/mL, 4 days, % αSMA positive cells; for inhibition at 10 µM: given for EC50 of >10 μM, TGF-β1, αSMA, read-out: percent inhibition at 10 μM
Description: Representative compounds were screened using primary human fibroblasts (derived from IPF patients) treated with TGF-β1 to determine their ability to inhibit the fibrotic process.
Primary human fibroblasts derived from IPF patients (LL29 cells) [^1Xiaoqiu Liu, et. al., “Fibrotic Lung Fibroblasts Show Blunted Inhibition by cAMP Due to Deficient cAMP Response Element-Binding Protein Phosphorylation”, Journal of Pharmacology and Experimental Therapeutics (2005), 315(2), 678-687; ^2Watts, K. L., et. al., “RhoA signaling modulates cyclin D1 expression in human lung fibroblasts; implications for idiopathic pulmonary fibrosis”, Respiratory Research (2006), 7(1), 88] were obtained from American Type Culture Collection (ATCC) and expanded in F12 medium supplemented with 15% Fetal Bovine Serum and Penicillin/Streptomycin.
Each compound was dissolved in DMSO as a 10 mM stock and used to prepare compound source plates. Serial dilution (1:2, 11-point dose-response curves from 10 μM to […]) and compound transfer was performed using the ECHO 550 (Labcyte, Sunnyvale, Calif.) into 384-well clear bottom assay plates (Greiner Bio-One) with appropriate DMSO backfill for a final DMSO concentration of 0.1%. LL29 cells are plated at 1,500 cells/well in 80 μL/well F12 medium supplemented with 1% Fetal Bovine Serum. One hour after addition of the cells, TGF-01 (Peprotech; 20 ng/mL) was added to the plates to induce fibrosis (ref. 1 and 2 above). Wells treated with TGF-β1 and containing DMSO were used as controls. Cells were incubated at 37° C. and 5% CO2 for 4 days. Following incubation for 4 days, SYTOX green nucleic acid stain (Life Technologies [Thermo Fisher Scientific]) was added to the wells at a final concentration of 1 μM and incubated at room temperature for 30 min. Cells were then fixed using 4% formaldehyde (Electron Microscopy Sciences), washed 3 times with PBS followed by blocking and permeabilization using 3% Bovine Serum Albumin (BSA; Sigma) and 0.3% Triton X-100 (Sigma) in PBS. Cells were then stained with antibody specific to α-smooth muscle actin (aSMA; Abcam) (ref. 1 and 2 above) in 3% Bovine Serum Albumin (BSA; Sigma) and 0.3% Triton X-100 (Sigma) in PBS, and incubated overnight at 4° C. Cells were then washed 3 times with PBS, followed by incubation with Alexa Flor-647 conjugated secondary antibody (Life Technologies [Thermo Fisher Scientific]) and DAPI at room temperature for 1 hour. Cells were then washed 3 times with PBS and plates were sealed for imaging. αSMA staining was imaged by excitation at 630 nm and emission at 665 nm and quantified using the Compartmental Analysis program on the CellInsight CX5 (Thermo Scientific). Dead or apoptotic cells were excluded from analysis based on positive SYTOX green staining. % of total cells positive for aSMA were counted in each well and normalized to the average of 11 wells treated with TGF-01 on the same plate using Dotmatics' Studies Software. The normalized averages (fold change over untreated) of 3 replicate wells for each compound concentration were used to create dose-responses curves and EC50 values were calculated using non-linear regression curve fit in the Dotmatics' Studies Software. For EC50 of >10 μM, the percent inhibition at 10 μM is provided.

SW480 colon cancer cells = experiment: Cell viability assay (CellTiter-Blue) in SW480 colon cancer cells; assay type: cell-based, human; conditions: Homo sapiens; for EC50: 96 h, four days, CellTiter-Blue; for inhibition at 10 µM: given for EC50 of >10 μM, read-out: percent inhibition at 10 μM
Protocol: Representative compounds were screened using the following assay procedure to assess the effect on cell viability as described below.
Each compound was dissolved in DMSO as a 10 mM stock and used to prepare compound source plates. Serial dilution (1:3, 8-point dose-response curves from 10 μM to 0.0045 μM) and compound transfer was performed using the ECHO 550 (Labcyte, Sunnyvale, Calif.) into 96-well clear bottom, black-walled plates (Corning-Costar).
Approximately 2×10^3 SW480 colon cancer cells were seeded into each well and allowed to incubate in the presence or absence of compound for four days at 37° C./5% CO2. Eight replicates of DMSO-treated cells served as controls and cells treated with compound were performed in duplicate.
After incubation, 20 μL of CellTiter-Blue (Promega) was added to each well allowed to incubate for approximately 3 hours. This reagent was a buffered solution which contains resazurin, metabolically active cells were able to reduce rezarurin (blue) into resorufin (pink) which was highly fluorescent. This measured fluorescence was used as a readout for cell viability.
After incubation, the plates were read at Ex 560 nm Em 590 nm (Cytation 3, BioTek). Dose-response curves were generated and EC50 concentration values were calculated using non-linear regression curve fit in the GraphPad Prism (San Diego, Calif.) or Dotmatics' Studies Software (Bishops Stortford, UK). For EC50 of >10 μM, the percent inhibition at 10 μM is provided.

IL-6 = IL-6 inhibition in LPS-stimulated THP-1 monocytes (HTRF); assay type: cell-based, human; conditions: Homo sapiens, THP-1 cells; for EC50: 500 ng/mL LPS, 22 h, HTRF IL-6 readout, 10-point dose-response from 10 μM; for inhibition at 10 µM: LPS stimulated, given only where EC50 >10 μM, top concentration 10 μM, read-out: percentage in parentheses beside EC50 >10 (IL-6 inhibition)
Protocol: Human monocyte cell line (THP-1 cells; Catalog # TIB-202, ATCC, Manassas, Va.) were cultured in Roswell Park Memorial Institute (RPMI) 1640 Medium (Catalog #21870-100, Buffalo, N.Y.) with 1% L-glutamine, 1% HEPES, 1% Sodium Pyruvate, 2% Sodium Bicarbonate supplemented with 100 units/mL penicillin, 50 μg/mL streptomycin, 2-mercaptoethanol (0.05 mM) [basal medium] and 10% fetal bovine serum (Catalog #16140089, Life Technologies, Carlsbad, Calif.) at 37° C. and 5% CO2.
THP-1 cells were cultured in basal media with 1% FBS for 24 hours before the start of the assay. Each compound was dissolved in DMSO as a 10 mM stock and used to prepare compound source plates. Serial dilution (1:3, 10-point dose-response curves starting from 10 μM) and compound transfer was performed using the ECHO 550 (Labcyte, Sunnyvale, Calif.) into 384-well white low volume assay plates (Greiner Bio-One) with appropriate DMSO backfill for a final DMSO concentration of 0.1%. THP-1 cells were plated at 5000 cells/well in the 384-well plates and incubated at 37° C. for 2 h. 500 ng/mL of LPS was added after 2 hours and cells were incubated for another 22 hours at 37° C. Plates were spun in a centrifuge for 1 minute at […] and a mixture of anti-IL6 XL665, and anti-IL6 Cryptate diluted in reconstitution buffer (Cisbio Inc.) was added to each well. Following incubation for 3 hrs at room temperature, Homogeneous Time-Resolved Fluorescence (HTRF) was measured using the Envision (Perkin Elmer) at 665 nm and […]. The ratio of fluorescence at 665 nm to 620 nm was used as a readout for IL6 quantification. All samples were processed in duplicate. Readings were normalized to DMSO treated cells and normalized activities were utilized for EC50 calculations using the dose-response log (inhibitor) vs. response variable slope (four parameters) nonlinear regression feature available in GraphPad Prism 5.0 (or Dotmatics). For EC50 of >10 μM, the percent inhibition at 10 μM is provided.

SMILES | EC50 [1] [nM] | inhibition at 10 µM [1] [%] | EC50 (SW480 colon cancer cells) [µM] | inhibition at 10 µM (SW480 colon cancer cells) [%] | EC50 (IL-6) [nM] | inhibition at 10 µM (IL-6) [%]
CC(C)(C)C(=O)Nc1cncc(-c2cnc3[nH]nc(-c4cc5c(-c6ccoc6)cccc5[nH]4)c3c2)c1 [Compound 290, N-(5-(3-(4-(Furan-3-yl)-1H-indol-2-yl)-1H-pyrazolo[3,4-b]pyridin-5-yl)pyridin-3-yl)pivalamide] | > 10000 | 43.3 | > 10 | 35.1 | > 10000 | 31.2
Cc1ccncc1-c1cnc2[nH]nc(-c3cc4c(-c5ccncc5)cccc4[nH]3)c2c1 [Compound 99, 5-(4-Methylpyridin-3-yl)-3-(4-(pyridin-4-yl)-1H-indol-2-yl)-1H-pyrazolo[3,4-b]pyridine] | 2610 |  | > 10 | 36.8 | 62 | 
Nc1cncc(-c2cnc3[nH]nc(-c4cc5c(-c6ccccn6)cccc5[nH]4)c3c2)c1 [Compound 121, 5-(3-(4-(Pyridin-2-yl)-1H-indol-2-yl)-1H-pyrazolo[3,4-b]pyridin-5-yl) pyridin-3-amine] | 241 |  | 0.726 |  | 266 | 
c1cncc(-c2cccc3[nH]c(-c4n[nH]c5ncc(-c6cncc(CN7CCCCC7)c6)cc45)cc23)c1 [Compound 84, 5-(5-(Piperidin-1-ylmethyl)pyridin-3-yl)-3-(4-(pyridin-3-yl)-1H-indol-2-yl)-1H-pyrazolo[3,4-b]pyridine] | 5970 |  | 8.47 |  | 355 | 
CN(C)CCNc1cc(F)cc(-c2cccc3[nH]c(-c4n[nH]c5ncc(-c6cncc(CN7CCCCC7)c6)cc45)cc23)c1 [Compound 437, N^1-(3-Fluoro-5-(2-(5-(5-(piperidin-1-ylmethyl)pyridin-3-yl)-1H-pyrazolo[3,4-b]pyridin-3-yl)-1H-indol-4-yl)phenyl)-N^2,N^2-dimethylethane-1,2-diamine] | 5440 |  | 3.86 |  | > 10000 | 43.2
CC(C)CC(=O)Nc1cncc(-c2cnc3[nH]nc(-c4cc5c(-c6cc(F)cc(NCCN(C)C)c6)cccc5[nH]4)c3c2)c1 [Compound 424, N-(5-(3-(4-(3-((2-(Dimethylamino)ethyl)amino)-5-fluorophenyl)-1H-indol-2-yl)-1H-pyrazolo[3,4-b]pyridin-5-yl)pyridin-3-yl)-3-methylbutanamide] | 350 |  | 0.376 |  | 660 | 
CN1CCN(c2cccc3[nH]c(-c4n[nH]c5ncc(-c6cncnc6)cc45)cc23)CC1 [Compound 227, 3-(4-(4-Methylpiperazin-1-yl)-1H-indol-2-yl)-5-(pyrimidin-5-yl)-1H-pyrazolo[3,4-b]pyridine] | > 10000 | 47.8 | 8.76 |  | 3900 | 
c1cncc(-c2cnc3[nH]nc(-c4cc5ccccc5[nH]4)c3c2)c1 [Compound 231, 3-(1H-Indol-2-yl)-5-(pyridin-3-yl)-1H-pyrazolo[3,4-b]pyridine] | 8690 |  | > 10 | 9.1 | 19 | 
Cc1ncc(-c2cnc3[nH]nc(-c4cc5ccccc5[nH]4)c3c2)n1C [Compound 655, 5-(1,2-Dimethyl-1H-imidazol-5-yl)-3-(1H-indol-2-yl)-1H-pyrazolo[3,4-b]pyridine] | 3880 |  | 3.72 |  | 4350 | 
c1ccc(CNCc2cncc(-c3cnc4[nH]nc(-c5cc6ccccc6[nH]5)c4c3)c2)cc1 [Compound 250, 1-(5-(3-(1H-Indol-2-yl)-1H-pyrazolo[3,4-b]pyridin-5-yl)pyridin-3-yl)-N-benzylmethanamine] | 2950 |  | > 10 | 12.2 | 4000 | 
CS(=O)(=O)NCc1cc(F)cc(-c2cccc3[nH]c(-c4n[nH]c5ncc(-c6cncc(N)c6)cc45)cc23)c1 [Compound 453, N-(3-(2-(5-(5-Aminopyridin-3-yl)-1H-pyrazolo[3,4-b]pyridin-3-yl)-1H-indol-4-yl)-5-fluorobenzyl)methanesulfonamide] | 370 |  | 0.997 |  | 157 | 
CC(C)CC(=O)Nc1cncc(-c2cnc3[nH]nc(-c4cc5c(N6CCN(C)CC6)cccc5[nH]4)c3c2)c1 [Compound 202, 3-Methyl-N-(5-(3-(4-(4-methylpiperazin-1-yl)-1H-indol-2-yl)-1H-pyrazolo[3,4-b]pyridin-5-yl)pyridin-3-yl)butanamide] | 2310 |  | 4.84 |  | > 10000 | 0
CC(C)Nc1cncc(-c2cnc3[nH]nc(-c4cc5c(-c6cc(F)cc(NCCN(C)C)c6)cccc5[nH]4)c3c2)c1 [Compound 434, N^1-(3-Fluoro-5-(2-(5-(5-(isopropylamino)pyridin-3-yl)-1H-pyrazolo[3,4-b]pyridin-3-yl)-1H-indol-4-yl)phenyl)-N^2,N^2-dimethylethane-1,2-diamine] | 1440 |  | 0.394 |  | 692 | 
c1ccc(COc2cncc(-c3cnc4[nH]nc(-c5cc6ncccc6[nH]5)c4c3)c2)cc1 [Compound 1006, 5-(5-(Benzyloxy)pyridin-3-yl)-3-(1H-pyrrolo[3,2-b]pyridin-2-yl)-1H-pyrazolo[3,4-b]pyridine] | > 10000 | 24.8 | 1.44 |  | 168 | 
